According to patent US10933051B2, “Carbapenem compounds and compositions for the treatment of bacterial infections” (FOB Synthesis, Inc., priority 2017, dated 2021):

Tests used:
Format in all cases: cell-based
Parameters in all cases: unit not given here
[1] = system: K. pneumoniae ATCC BAA-1904; test: Antimicrobial Susceptibility Test (CLSI), Test Example 2; details: Table 4; strain produces KPC-3
Experimental: (§1) Antimicrobial Susceptibility Test was performed by the CLSI (Clinical and Laboratory Standards Institute) methods. The agar dilution method for determining antimicrobial susceptibility was carried out using Mueller Hinton-II agar and the amount of inoculation was 10^4CFU/spot. Broth dilution tests were performed using the Mueller Hinton-II broth. All assays were run with the indicated control strains, available from the ATCC (American Type Culture Collection, Rockville, Md.).

[2] = system: A. baumannii FSAb-039; test: as above; details: Table 4; strain produces OXA-51
Experimental: as §1

[3] = system: E. coli FSEco-054; test: as above; details: Table 4; strain produces ESBL
Experimental: as §1

[4] = system: P. aeruginosa FSPa-121; test: as above; details: Table 4; strain produces OXA-17
Experimental: as §1

[5] = system: A. baumannii FSAb-056; test: as above; details: Table 4; strain produces OXA-23, OXA-51
Experimental: as §1

[6] = system: A. baumannii FSAb-029; test: as above; details: Table 4; strain produces OXA-2, IMP-1
Experimental: as §1

[7] = system: A. baumannii FSAb-065; test: as above; details: Table 4; strain produces OXA-2, VIM-2
Experimental: as §1

[8] = system: P. aeruginosa FSPa-102; test: Antimicrobial Susceptibility Test (CLSI), Test Example 3; details: Table 6; strain produces IMP-1
Experimental: as §1

[9] = system: A. baumannii FSAb-039; test: as above; details: Table 6; strain produces OXA-51
Experimental: as §1

[10] = system: E. coli FSEco-054; test: as above; details: Table 6; strain produces ESBL
Experimental: as §1

[11] = system: A. baumannii FSAb-141; test: as above; details: Table 6; strain produces PER-1, OXA-23, 51, 66
Experimental: as §1

[12] = system: P. aeruginosa FSPa-141; test: as above; details: Table 6; strain produces VIM-2
Experimental: as §1

[13] = system: A. baumannii FSAb-056; test: as above; details: Table 6; strain produces OXA-23, 51
Experimental: as §1

[14] = system: K. pneumoniae BAA-1904; test: as above; details: Table 6; strain produces KPC-3
Experimental: as §1

[15] = system: A. baumannii FSAb-029; test: as above; details: Table 6; strain produces OXA-2, IMP-1
Experimental: as §1

Row | SMILES | antimicrobial susceptibility, K. pneumoniae BAA-1904 [1] | antimicrobial susceptibility, A. baumannii FSAb-039 [2] | antimicrobial susceptibility, E. coil FSEco-054 [3] | antimicrobial susceptibility, P. aeruginosa FSPa-121 [4] | antimicrobial susceptibility, A. baumannii FSAb-056 [5] | antimicrobial susceptibility, A. baumannii FSAb-029 [6] | antimicrobial susceptibility, A. baumannii FSAb-065 [7] | antimicrobial susceptibility, Pa FSPa-102 [8] | antimicrobial susceptibility, Ab FSAb-039 [9] | antimicrobial susceptibility, Ec FSEco-054 [10] | antimicrobial susceptibility, Ab FSAb-141 [11] | antimicrobial susceptibility, Pa FSPa-141 [12] | antimicrobial susceptibility, Ab FSAb-056 [13] | antimicrobial susceptibility, Kp BAA-1904 [14] | antimicrobial susceptibility, Ab FSAb-029 [15]
1 | C[C@@H](O)[C@H]1C(=O)N2C(C(=O)O)=C(CN3CC[C@@H](NC(=O)c4ccc(O)c(O)c4Cl)C3)[C@H](C)[C@H]12 [Compound 29] | >32 | 8 | 2 | 2 | 4 | 1 | 1 | – | – | – | – | – | – | – | –
2 | C[C@@H](O)[C@H]1C(=O)N2C(C(=O)O)=C(CN3C[C@H](NC(=O)c4ccc(O)c(O)c4Cl)[C@@H](O)C3)[C@H](C)[C@H]12 [Compound 30] | 16 | 4 | 2 | 2 | 4 | 2 | 0.5 | – | – | – | – | – | – | – | –
3 | C[C@@H](O)[C@H]1C(=O)N2C(C(=O)O)=C(CN3C[C@@H](O)[C@H](NC(=O)c4ccc(O)c(O)c4Cl)C3)[C@H](C)[C@H]12 [Compound 31] | 32 | 4 | 2 | 2 | 4 | 2 | 0.5 | – | – | – | – | – | – | – | –
4 | C[C@@H](O)[C@H]1C(=O)N2C(C(=O)O)=C(CN3C[C@@H](NC(=O)c4ccc(O)c(O)c4Cl)C[C@H]3C(N)=O)[C@H](C)[C@H]12 [Compound 32] | >32 | >32 | 4 | 1 | 16 | 2 | 1 | – | – | – | – | – | – | – | –
5 | C[C@@H](O)[C@H]1C(=O)N2C(C(=O)O)=C(CN3C[C@@H](NC(=O)c4ccc(O)c(O)c4Cl)C[C@@H]3C(N)=O)[C@H](C)[C@H]12 [Compound 33] | >32 | 32 | 4 | 2 | 8 | 4 | 1 | – | – | – | – | – | – | – | –
6 | C[C@@H](O)[C@H]1C(=O)N2C(C(=O)O)=C(CN3CCCC3CNC(=O)c3ccc(O)c(O)c3Cl)[C@H](C)[C@H]12 (some centres unmarked) [Compound 34] | >32 | 8 | 2 | 8 | 8 | 2 | 8 | – | – | – | – | – | – | – | –
7 | C[C@@H](O)[C@H]1C(=O)N2C(C(=O)O)=C(CN3CCCC3CNC(=O)c3ccc(O)c(O)c3Cl)[C@H](C)[C@H]12 (some centres unmarked) [Compound 35] | >32 | 8 | 2 | 4 | 4 | 4 | 2 | – | – | – | – | – | – | – | –
8 | C[C@@H](O)[C@H]1C(=O)N2C(C(=O)O)=C(CN3CCC(C(=O)NCc4ccc(O)c(O)c4Cl)C3)[C@H](C)[C@H]12 (some centres unmarked) [Compound 37] | >32 | 32 | 8 | 8 | 16 | 8 | 4 | – | – | – | – | – | – | – | –
9 | C[C@@H](O)[C@H]1C(=O)N2C(C(=O)O)=C(CN3CC(NC(=O)c4ccc(O)c(O)c4Cl)C3)[C@H](C)[C@H]12 [Compound 38] | 16 | 4 | 2 | 4 | 4 | 0.5 | 0.25 | – | – | – | – | – | – | – | –
10 | C[C@@H](O)[C@H]1C(=O)N2C(C(=O)O)=C(CN3CC(C(=O)NCc4ccc(O)c(O)c4Cl)C3)[C@H](C)[C@H]12 [Compound 39] | 8 | 8 | 2 | 16 | 8 | 4 | 1 | – | – | – | – | – | – | – | –
11 | C[C@@H](O)[C@H]1C(=O)N2C(C(=O)[O-])=C(C[N+](C)(C)CCNC(=O)c3ccc(O)c(O)c3Cl)[C@H](C)[C@H]12 [Compound 40] | 16 | 16 | 4 | 4 | 8 | 8 | 4 | – | – | – | – | – | – | – | –
12 | C[C@@H](O)[C@H]1C(=O)N2C(C(=O)O)=C(CN(CCNC(=O)c3ccc(O)c(O)c3F)CCNC(=O)c3ccc(O)c(O)c3F)[C@H](C)[C@H]12 [Compound 101] | – | – | – | – | – | – | – | 1 | 2 | 2 | 0.5 | 1 | 4 | >32 | 0.25
13 | C[C@@H](O)[C@H]1C(=O)N2C(C(=O)O)=C(CN(CCCNC(=O)c3ccc(O)c(O)c3F)CCNC(=O)c3ccc(O)c(O)c3F)[C@H](C)[C@H]12 [Compound 102] | – | – | – | – | – | – | – | 1 | 1 | 1 | 0.5 | 2 | 4 | >32 | 0.25
14 | C[C@@H](O)[C@H]1C(=O)N2C(C(=O)O)=C(CN(CCCNC(=O)c3ccc(O)c(O)c3F)CCCNC(=O)c3ccc(O)c(O)c3F)[C@H](C)[C@H]12 [Compound 103] | – | – | – | – | – | – | – | 2 | 1 | 1 | 1 | 8 | 4 | >32 | 0.25
